Test results reported in US20130065760A1, “Substituted Pyridines Having Herbicidal Action” (BASF SE, priority 2010, published 2013).

Tested on: AMARE
Test: greenhouse experiment, post-emergence treatment, herbicidal activity
Type: in vivo, Amaranthus retroflexus
Settings: post-emergence method, application rate 0.5 kg/ha, scale from 0 to 100
Excerpt: The seeds of the test plants were sown separately for each species. For the post-emergence treatment, the test plants were first grown to a height of 3 to 15 cm, depending on the plant habit, and only then treated with the active ingredients which had been suspended or emulsified in water. For this purpose, the test plants were either sown directly and grown in the same containers, or they were first grown separately as seedlings and transplanted into the test containers a few days prior to treatment. Depending on the species, the plants were kept at 10-25° C. or 20-35° C. The test period extended over 2 to 4 weeks. During this time, the plants were tended, and their response to the individual treatments was evaluated. Evaluation was carried out using a scale from 0 to 100. 100 means no emergence of the plants, or complete destruction of at least the aerial moieties, and 0 means no damage, or normal course of growth. A good herbicidal activity is given at values of at least 70 and a very good herbicidal activity is given at values of at least 85. The plants used in the greenhouse experiments belonged to the following species: [table]

Substance: 3-[5-chloro-3-morpholino-2-(trifluoromethyl)phenyl]-1-(2,2-difluoroethyl)-4-hydroxy-1,5-naphthyridin-2-one [I-3]
- herbicidal activity against AMARE: very good (a very good herbicidal activity is given at values of at least 85)
